Literature values as cited in patent US20060211662A1, “Combination therapy for topical application in the treatment of age-related macular degeneration and ocular hypertension” (priority 2005, published 2006).

Assays:
[1] = for anabolic activity relative to standards: relative to standards (typically testosterone)
[2] = for androgenic (virilizing) activity relative to standards: relative to standards (typically testosterone)

Structure (SMILES) | anabolic activity relative to standards [1] | androgenic (virilizing) activity relative to standards [2] | anabolic activity as percent of methyltestosterone ([1]; relative to methyltestosterone) | androgenic activity as percent of methyltestosterone ([2]; relative to methyltestosterone)
CCC(=O)O[C@H]1CC[C@H]2[C@@H]3CCC4=CC(=O)CC[C@@H]4[C@H]3CC[C@]12C [19-nortestosterone propionate] | unchanged | decreased |  | 
C[C@]12CCC(=O)C[C@@H]1CC[C@@H]1[C@@H]2CC[C@]2(C)[C@@H](O)CC[C@@H]12 [dihydrotestosterone] | enhanced | unchanged |  | 
C[C@]1(O)CC[C@H]2[C@@H]3CCC4=CC(=O)CC[C@]4(C)[C@@]3(F)[C@@H](O)C[C@@]21C [fluoxymesterone] | even larger increase | augmented |  | 
C[C@]12COC(=O)C[C@@H]1CC[C@@H]1[C@@H]2CC[C@@]2(C)[C@H]1CC[C@]2(C)O [oxandrolone, 17 alpha-methyl-17β-hydroxy-2-oxa-5 alpha-androstan-3-one] | increased | decreased | 322% | 24%
C[C@]12C/C(=C/O)C(=O)C[C@@H]1CC[C@@H]1[C@@H]2CC[C@@]2(C)[C@H]1CC[C@]2(C)O [oxymetholone] | enhanced | unchanged |  | 
C[C@]12Cc3c[nH]nc3C[C@@H]1CC[C@@H]1[C@@H]2CC[C@@]2(C)[C@H]1CC[C@]2(C)O [stanozolol] | increased | decreased |  | 
